In article PMC2877875, “Characterisation of the bifunctional dihydrofolate synthase–folylpolyglutamate synthase from Plasmodium falciparum; a potential novel target for antimalarial antifolate inhibition” (Molecular and Biochemical Parasitology, 2010):
Entries after “also recorded” stand apart in the source; their conditions may differ. Where two headings read alike, the source gives them in different places.

Columns and labels:
[1] = target: PfDHFS–FPGS (DHFS activity) (Plasmodium falciparum, UniProt Q8IE69); assay: DHFS assay of recombinant PfDHFS–FPGS ([14C]glutamate incorporation); assay type: biochemical; conditions: for Km: low co-substrate concentrations (ATP or glutamate ≤25 μM), Michaelis–Menten fit, read-out: apparent Km, DHFS activity
Description: (§1) A standard reaction mix based on those established for bacterial and eukaryotic DHFS/FPGS assays was adopted [[28,36,37]] and contained 10 mM MgCl2, 5 mM DTT, 200 mM KCl, 100 mM Tris, 50 mM glycine, 1 mg/ml BSA, 45 μg/ml DHFS–FPGS protein (0.72 μM), pH 10. […] The enzyme reactions were carried out at 37 °C for 60 min in triplicate and stopped by transferring reaction tubes into an ice-cold water bath. Reaction mixes were then spotted onto DE81 ion-exchange paper (pre-treated with 0.5 M EDTA, pH 8.0 and then dried), air dried and the unreacted label washed away with 125 ml of 40 mM NaCl, 10 mM Tris–HCl, pH 8.0, four times, 20 min each wash. The filter was then exposed to a storage phosphor screen overnight and the screen scanned with a quantitative imager (Typhoon Trio Variable Mode Imager, GE Healthcare, UK). The measured counts were converted to concentrations by comparison with a standard curve derived from known amounts of the radiolabelled L-glutamate subsequently used as substrate in the assays. The enzyme activity data was analysed using the Matlab software package. Regression curves were fitted using the least squares routine.

[2] = tested on: bacterial DHFS; conditions: cited from earlier work
[3] = target: PfDHFS–FPGS (FPGS activity) (Plasmodium falciparum, UniProt Q8IE69); assay: biochemical; assay type: biochemical
Description: as §1

[4] = tested on: P. falciparum FCB strain; assay: Metabolic labelling of parasite cultures with 3H-folinic acid and 3H-methotrexate, HPLC analysis; assay type: cell-based, Plasmodium falciparum; conditions: for conversion to polyglutamylated forms in parasite cultures: 3H label 0.5 μCi/ml, ring-stage culture, 20 h incubation, HPLC
Description: 0.5 μCi/ml of either ^3H-folinic acid or ^3H-methotrexate at the same specific activity was used to label parallel 50 ml synchronous cultures of P. falciparum FCB strain. Label was incubated with ring-stage (6–10 h) parasites, which were harvested at the late trophozoite stage 20 h later. The labelled products were extracted by the boiling method and analysed using HPLC on a C18 column eluted with an acetonitrile gradient as described.

[5] = tested on: P. falciparum cultures; assay: Growth of P. falciparum cultures (dose–response); assay type: cell-based, Plasmodium falciparum
[6] = tested on: bacterial and mammalian FPGS; conditions: read-out: Km with bacterial and mammalian FPGS; cited from earlier work
[7] = substrate: N[C@@H](CCC(=O)O)C(=O)O; assay: DHFS assay of recombinant PfDHFS–FPGS ([14C]glutamate incorporation); assay type: biochemical; conditions: other: low co-substrate concentrations (ATP or glutamate ≤25 μM), Michaelis–Menten fit; 37.0 °C
Description: as §1

[8] = low substrate concentrations, 25 μM substrate, 25 μM ATP, 18 μM glutamate

Molecule: Nc1nc2c(c(=O)[nH]1)N=C(CNc1ccc(C(=O)O)cc1)CN2 [DHP, 7,8-dihydropteroate]
- DHP concentration at which DHFS activity peaked ([1]; ATP 0.5 mM, glutamate up to ∼1 mM): 1 to 2 µM
- dissociation constant KA for the substrate binding (catalytic site) ([1]; best-fit model a (partial substrate inhibition, three substrates), ATP 6 μM to 5 mM, glutamate 25 μM to 1 mM, n = 15): 0.50 µM
- Kd ([1]; best-fit model a, ATP 6 μM to 5 mM, glutamate 25 μM to 1 mM, n = 15, read-out: dissociation constant KABCA for the substrate (DHP) inhibition (inhibitory site)): 1250 nM
- DHP concentration above which substrate inhibition became significant ([1]; high ATP and glutamate): > 2 µM
- Km [1]: 0.88 µM
- Km [2]: 0.4 to 6 µM

Molecule: Nc1nc(=O)c2nc(CNc3ccc(C(=O)N[C@@H](CCC(=O)O)C(=O)O)cc3)cnc2[nH]1 [folic acid]
- processing as substrate for polyglutamylation by FPGS activity (words) [3]: very poor substrates; also recorded: very low level of activity
- processing as substrate for polyglutamylation by FPGS activity (words) ([3]; listed as folate): negligibly processed
- polyglutamylated forms of folate produced compared with that produced from THF [3, 8]: insignificant

Molecule: CN(Cc1cnc2nc(N)nc(N)c2n1)c1ccc(C(=O)N[C@@H](CCC(=O)O)C(=O)O)cc1 [MTX, methotrexate]
- inhibition of DHFS activity ([1]; MTX up to 1.0 mM, DHP 10 μM, ATP 5 mM, glutamate 275 μM): inhibited neither DHFS nor FPGS; also recorded: neither the DHFS nor FPGS activities showed any sensitivity
- processing as substrate for polyglutamylation by FPGS activity (words) [3]: negligibly processed; also recorded: not a substrate
- inhibition of FPGS activity ([3]; MTX up to 1.0 mM, THF 10 μM, ATP 5 mM, glutamate 275 μM): inhibited neither DHFS nor FPGS; also recorded: neither the DHFS nor FPGS activities showed any sensitivity
- conversion to polyglutamylated forms in parasite cultures [4]: no polyglutamylated versions of MTX could be detected; also recorded: No polyglutamylated forms of MTX could be detected
- accumulation (uptake and retention) in parasites ([4]; equal initial label concentrations, 20 h): somewhat higher levels than folinic acid; also recorded: exceeded that of folinic acid
- IC50 ([5]; Plasmodium falciparum, average for four different strains): ~40 nM
- effect on parasite growth at extremely low levels ([5]; around 1 nM): stimulatory effect on growth

Molecule: 5,6,7,8-tetrahydrofolate [THF]
- processing as substrate for polyglutamylation by FPGS activity (words) [3]: efficiently converted to polyglutamylated forms
- Km [6]: 2 to 5 µM

Molecule: Nc1nc2ncc(CNc3ccc(P(=O)(O)CC(CCC(=O)O)C(=O)O)cc3)nc2c(=O)[nH]1 (stereo not shown) [compound 1, 2-[[[4-[N-[(2-amino-3,4-dihydro-4-oxo-6-pteridinyl)methyl]amino]phenyl](hydroxy)phosphinoyl]methyl]pentane-1,5-dioic acid]
- strong inhibition of DHFS activity by the oxidised form ([1]; oxidised (unreduced) form): not its oxidised form

Molecule: Nc1nc(=O)c2c([nH]1)NCC(CNc1ccc(C(=O)N[C@@H](CCC(=O)O)C(=O)O)cc1)N2C=O (mixture of isomers) [folinic acid]
- conversion to polyglutamylated forms in parasite cultures [4]: almost complete

Molecule: Nc1nc2c(c(=O)[nH]1)N=C(CNc1ccc(C(=O)N[C@@H](CCP(=O)(O)CC(CCC(=O)O)C(=O)O)C(=O)O)cc1)CN2 (stereo partly shown) [H2-2]
- Ki [1]: 1690 nM
- IC50 [3]: 390 nM
- Ki [3]: 91 nM
- potency for FPGS activity over DHFS activity ([3]; from Ki values): ~20 fold

Molecule: Nc1nc(=O)c2c([nH]1)NCC(CNc1ccc(C(=O)N[C@@H](CCC(=O)O)C(=O)O)cc1)=N2 [DHF, 7,8-dihydrofolate]
- processing as substrate for polyglutamylation by FPGS activity (words) [3]: very poor substrates
- polyglutamylated forms of folate produced compared with that produced from THF ([3]; high substrate concentrations, 100 μM substrate, 2 mM ATP, 200 μM glutamate): 12%
- processing as substrate for polyglutamylation by FPGS activity (words) ([3]; listed as dihydrofolate): negligibly processed
- polyglutamylated forms of folate produced compared with that produced from THF [3, 8]: 21%

Molecule: Nc1nc2c(c(=O)[nH]1)N=C(CNc1ccc(P(=O)(O)CC(CCC(=O)O)C(=O)O)cc1)CN2 (stereo not shown) [H2-1]
- IC50 [1]: 410 nM
- Ki [1]: 140 nM
- potency for DHFS activity over FPGS activity ([1]; from Ki values): about 5 fold
- Ki [3]: 630 nM

Molecule: Nc1ncnc2c1ncn2[C@@H]1O[C@H](COP(=O)(O)OP(=O)(O)OP(=O)(O)O)[C@@H](O)[C@H]1O [ATP]
- Km [1]: 22.8 µM

B1: PfDHFS–FPGS (DHFS activity) (Plasmodium falciparum 3D7) (protein)
chain: MEKNQNDKSNKNDIIHMNDKSGNYDKNNINNFIDKNDEHDMSDILHKINNEEKKYEEIKSYSECLELLYKTHALKLGLDNPKKLNESFGHPCDKYKTIHIAGTNGKGSVCYKIYTCLKIKKFKVGLFSSPHIFSLRERIIVNDEPISEKELIHLVNEVLNKAKKLYINPSFFEIITLVAFLHFLNKKVDYAIIETGIGGRLDATNILTKPEVIVITSIGYDHLNILGDNLPIICNEKIGIFKKDANVVIGPSVAIYKNVFDKAKELNCTIHTVVPEPRGERYNEENSRIALRTLEILNISIDYFLKSIIPIKPPLRIQYLATEQIQHIKKKFSPDNLEHNVQYPLAVILDVGHNETAIDRLCTDINYFHKGQNIRICISITKPRNLSVFHPFIAQFGDTLKDIFYLPSLNERTYDFEEIVEMLNNEEEIKNEIKELILSSSKKVGKWLAHEKQGNINEEDALKLYKRGCIPLIIKNAFLECCKDNSILLVCGTFFVFDEVLNVFDIHSDMQDTIFMNEPSLV
- Km [7]: 5.97 µM
